Data as given in patent US8283373B2, “Inhibitors of cytosolic phospholipase A2” (Pfizer Inc., priority 2005, dated 2012).

Tests used:
cPLA2α = biological target: T1, cPLA2α (Homo sapiens, UniProt P47712); experiment: GLU Micelle Assay; format: biochemical
T1 sequence (P47712 1-749): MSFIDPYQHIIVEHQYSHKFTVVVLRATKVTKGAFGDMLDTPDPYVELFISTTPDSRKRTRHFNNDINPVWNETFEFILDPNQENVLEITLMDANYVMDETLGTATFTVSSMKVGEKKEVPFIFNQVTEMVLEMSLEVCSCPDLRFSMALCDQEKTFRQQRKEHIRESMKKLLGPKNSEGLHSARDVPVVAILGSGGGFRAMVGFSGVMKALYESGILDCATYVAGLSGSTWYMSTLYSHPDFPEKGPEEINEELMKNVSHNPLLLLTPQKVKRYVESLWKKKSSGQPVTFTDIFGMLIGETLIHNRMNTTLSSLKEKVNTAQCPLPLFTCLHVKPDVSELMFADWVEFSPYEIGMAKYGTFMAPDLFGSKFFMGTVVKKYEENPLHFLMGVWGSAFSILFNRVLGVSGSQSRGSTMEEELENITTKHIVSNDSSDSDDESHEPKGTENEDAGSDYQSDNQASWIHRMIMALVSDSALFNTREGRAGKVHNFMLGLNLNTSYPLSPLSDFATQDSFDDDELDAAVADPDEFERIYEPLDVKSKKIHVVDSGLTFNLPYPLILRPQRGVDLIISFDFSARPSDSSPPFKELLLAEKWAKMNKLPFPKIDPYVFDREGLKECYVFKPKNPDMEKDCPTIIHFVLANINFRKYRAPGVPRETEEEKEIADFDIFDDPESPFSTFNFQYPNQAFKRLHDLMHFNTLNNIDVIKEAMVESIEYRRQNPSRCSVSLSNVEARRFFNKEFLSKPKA
Procedure, shortened: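 Fluorogenic micelle assay with 1 μg/ml cPLA2α and 90 μM GLU substrate plus 120 μM DTPC in 940 μM Triton X-100, 50 mM Hepes pH 7.4, 0.3 mM EDTA, 1 mM CaCl2, 300 mM KCl. Fluorescence (ex 355/em 460) was read every 4 min for 84 min. Percent inhibition came from slopes relative to positive and negative controls.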

TXB2 = experiment: Rat Whole Blood Assay (A23187-stimulated TXB2); format: cell-based; settings: Rattus norvegicus; A23187 5 μM
Procedure, shortened: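 Heparinized male Sprague-Dawley rat blood pre-incubated 15 min at 37 °C with compound or DMSO, then stimulated with 5 μM (final) A23187 for 10 min at 37 °C. Stopped with 20 mM EDTA; TXB2 in methanol-extracted plasma measured by ELISA.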

[1] = tested on: primary cerebellar granule neurons; experiment: Oxygen-glucose deprivation (OGD) in cultured cerebellar granule neurons; format: cell-based, rat; settings: for percent cell death (lactate dehydrogenase release), Avg.: OGD 2 hours, control 14, OGD 51
Experimental: Primary cerebellar granule neurons were isolated from P5-8 rat pups. Briefly, cerebelli were collected and pooled in ice-cold phosphate buffer saline (PBS) without Ca^2+ and Mg^2+. The tissue was finely chopped and transferred to an enzymatic dissociation media containing 20 IU/ml papain in Earle's balanced salt solution (Worthington Biochemical, Freehold, N.J.) and incubated for 30 minutes at 37° C. After enzymatic dissociation, the papain solution was aspirated and the tissue mechanically triturated with a fire-polished Pasteur pipette in complete media [Neurobasal Medium with B-27 supplement (Gibco, Grand Island, N.Y.), penicillin/streptomycin, aphidicolin, glutamate, potassium chloride] containing 2,000 IU/ml DNase and 10 mg/ml ovomucoid protease inhibitor. Single-cell suspensions in complete media were plated on pre-coated poly-L-ornithine/laminin 24-well plates (Becton-Dickinson, Bedford, Mass.) at a density of
5.0×10^5 cells/well. Cells were maintained for two weeks prior to experimentation.
Cultures were treated with Compound A at various concentrations, 60 minutes before OGD. Media was removed and replaced with deoxygenated buffer in an anaerobic chamber (80% nitrogen, 10% hydrogen, 10% carbon dioxide gas mixture). Fresh Compound A, Example 34 or Example 41 was added to the cultures and maintained in the anaerobic chamber for 2 hours. At the end of the incubation, fresh media was exchanged and fresh Compound A was added. Cultures were maintained for an additional 24 hours in a normoxic incubator. Cell death was determined by measuring lactate dehydrogenase release into the media 24 hours later (Roche Biochemicals). In the table below, values are shown for the control, OGD, various concentrations of Compound A, and MK801, a NMDA receptor antagonist, which is a positive control.

| SMILES | IC50 (cPLA2α) | IC50 (TXB2) | protection of cultured neurons from OGD-induced cell death [1] | percent cell death (lactate dehydrogenase release), Avg. ([1]; 0.1 μM) | percent cell death (lactate dehydrogenase release), Avg. ([1]; 0.3 μM) | percent cell death (lactate dehydrogenase release), Avg. ([1]; 1 μM) | percent cell death (lactate dehydrogenase release), Avg. ([1]; 3 μM) |
| --- | --- | --- | --- | --- | --- | --- | --- |
| O=C(O)c1ccc(CCCc2c(CCNS(=O)(=O)Cc3ccccc3-c3cccc4cccnc34)n(C(c3ccccc3)c3ccccc3)c3ccc(Cl)cc23)cc1 [Example 34, 4-{3-[5-chloro-1-(diphenylmethyl)-2-(2-{[(2-quinolin-8-ylbenzyl)sulfonyl]amino}ethyl)-1H-indol-3-yl]propyl}benzoic acid] | 16 nM | 30 nM | effective in protecting cultured neurons from OGD-induced cell death | 35% | 28% | 21% | 18% |
| O=C(O)c1ccc(CCCc2c(CCNS(=O)(=O)Cc3ccccc3-c3cccc4ncccc34)n(C(c3ccccc3)c3ccccc3)c3ccc(Cl)cc23)cc1 [Example 41, 4-{3-[5-chloro-1-(diphenylmethyl)-2-(2-{[(2-quinolin-5-ylbenzyl)sulfonyl]amino}ethyl)-1H-indol-3-yl]propyl}benzoic acid] | 22 nM | – | effective in protecting cultured neurons from OGD-induced cell death | 40% | 33% | 30% | 24% |
